Results published in paper PMC8427973, “Regulation of the HTRA2 Protease Activity by an Inhibitory Antibody-Derived Peptide Ligand and the Influence on HTRA2-Specific Protein Interaction Networks in Retinal Tissues” (Biomedicines, 2021).

What was measured:
[1] = tested on: HTRA2-PDZ domain; set-up: method as in PMID 23457469; settings: cited from earlier work
[2] = target: T1, recombinant HTRA2 protein (Homo sapiens, UniProt O43464); assay: HTRA2 protease activity assay with fluorescent H2-optimal substrate; type: biochemical; settings: for Inhibitory effect on HTRA2 after targeted alanine substitution in the CDR binding motif (mutational analysis): protease activity assay, Figure S1; for Increase of the average degradation rate of the optimal substrate H2 with respect to the untreated positive control: 100 nM HTRA2, 10 µM substrate, RT; for Average degradation rate of the optimal substrate H2 by HTRA2 (enzymatic reaction rate per minute): 100 nM recombinant HTRA2, 10 µM H2-optimal substrate, pH 8.0, RT, fluorescence ex 320 nm / em 405 nm, untreated positive control 229 U/min
T1 construct: 6xHis (C); purchased Novoprotein Scientific INC., Summit, NJ, USA
T1 sequence (O43464 134-458): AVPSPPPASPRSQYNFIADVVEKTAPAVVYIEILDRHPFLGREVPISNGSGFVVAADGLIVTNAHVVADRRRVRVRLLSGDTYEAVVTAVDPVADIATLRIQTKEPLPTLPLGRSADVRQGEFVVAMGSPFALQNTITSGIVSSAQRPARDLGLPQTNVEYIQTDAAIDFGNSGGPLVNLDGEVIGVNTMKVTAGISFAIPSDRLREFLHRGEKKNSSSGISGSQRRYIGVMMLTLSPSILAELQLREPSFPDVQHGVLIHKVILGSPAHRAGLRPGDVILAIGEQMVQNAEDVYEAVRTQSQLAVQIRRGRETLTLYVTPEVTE
Experimental: The HTRA2 protease activity assay was performed as described by Martins et al. (2003), but with some slight modifications. The experiment was performed with 100 nM recombinant HTRA2 protein (Novoprotein Scientific INC., Summit, NJ, USA) in a protease assay buffer (50 mM tris(hydroxymethyl)-aminomethane (TRIS), 0.5 mM ethylenediaminetetraacetic acid (EDTA), and 1 mM dithiothreitol (DTT), pH 8.0) containing 10 µM H2-optimal substrate (Innovagen AB, Lund, Sweden). The H2-optimal substrate is commonly used to measure the protease activity of HTRA2 and consists of a structural quencher and a fluorophore unit. The cleavage of the substrate leads to the disruption of the quencher/fluorophore complex and the degradation rate can be measured by fluorescence. The different sample groups were treated with 50 µM PDZ-Opt, 50 µM PDZ-Sub, 50 µM synthetic CDR1 peptide, or 30 µM UCF-101, respectively. The drug compound UCF-101 is an inhibitor of the catalytic domain of HTRA2 and was purchased from Sigma Aldrich (Darmstadt, Germany). The concentrations of the peptide ligands for the HTRA2 protease activity assay were chosen from the previous publication. The concentration of UCF-101 was determined to be optimal from the preliminary experiments. In addition, a positive control containing only 100 nM recombinant HTRA2 and a negative control (only protease assay buffer) were included in this experiment. All of the sample groups were incubated for 1 h at 37 °C to determine the maximum degradation rate of HTRA2. For the analysis of the enzymatic reaction rate of HTRA2, all samples were measured subsequently after the addition of the 10 µM H2-optimal substrate at RT. Fluorescence was monitored on a Spark® 10 M multimode microplate-reader (Tecan Trading AG, Männedorf, Switzerland) with an excitation at 320 nm and a fluorescence emission at 405 nm. The fluorescence background of the substrate was substracted from the fluorescence intensities of the different the sample groups to normalize the data.
To determine the proteolytic activity of HTRA2 we used the fluorescent H2 optimal substrate developed by Martins et al. (2003). The optimal substrate H2 encoded a short specific amino acid sequence, which is preferentially cleaved by HTRA2, and was also modified with a fluorescent dye and quencher. […] Under physiological conditions, the proteolytic activity of HTRA2 is suppressed by the C-terminal PDZ domain, which blocks the access of potential substrates to the catalytic domain by steric hindrance. The binding of short hydrophobic polypeptides to the allosteric PDZ domain can induce specific conformational changes of HTRA2 and are able to regulate its proteolytic activity. Therefore, Martins et al. (2003) specifically designed the peptide ligands PDZ-Opt (GQYYFV) and PDZ-Sub (GGIRRV), which are known to increase the proteolytic activity of HTRA2 in this assay.

[3] = target: Serine protease HTRA2, mitochondrial (recombinant, 6xHis-tag) (UniProt O43464)

Molecule: AGYTGFV
- Glide score for binding to the HTRA2-PDZ domain [1]: -7.903 kcal/mol

Molecule: ASGATFTNYGLSWVR [Y(4), CDR peptide for the mutational analysis, alanine at position 4]
- Inhibitory effect on HTRA2 after targeted alanine substitution in the CDR binding motif (mutational analysis) [2]: particular important presence of Y(4) and F(6) for the inhibitory effect on HTRA2

Molecule: ASGYAFTNYGLSWVR [T(5) to A(5), CDR peptide for the mutational analysis, alanine at position 5]
- Inhibitory effect on HTRA2 after targeted alanine substitution in the CDR binding motif (mutational analysis) [2]: significantly strengthened the inhibitory effect

Molecule: ASGYTATNYGLSWVR [F(6), CDR peptide for the mutational analysis, alanine at position 6]
- Inhibitory effect on HTRA2 after targeted alanine substitution in the CDR binding motif (mutational analysis) [2]: particular important presence of Y(4) and F(6) for the inhibitory effect on HTRA2

Molecule: GGIRRV [PDZ-Sub, a peptide generated by HTRA2 auto-proteolysis, reference compound]
- Increase of the average degradation rate of the optimal substrate H2 with respect to the untreated positive control ([2]; 50 µM peptide): up to 18%
- Average degradation rate of the optimal substrate H2 by HTRA2 (enzymatic reaction rate per minute) ([2]; 50 µM peptide): 272 U/min

Molecule: GQYYFV [PDZ-Opt, reference compound]
- Increase of the average degradation rate of the optimal substrate H2 with respect to the untreated positive control ([2]; 50 µM peptide): up to 50%
- Average degradation rate of the optimal substrate H2 by HTRA2 (enzymatic reaction rate per minute) ([2]; 50 µM peptide): 345 U/min

Molecule: YVWAGSTLSRTGNFY [scrambled CDR, scrambled CDR peptide analog]
- Maximum degradation rate of the H2 optimal substrate by HTRA2 ([2]; 50 µM peptide, 1 h at 37 °C, n = 3, Figure 1C): unable to induce the suppression of the HTRA2 protease activity

Molecule: GGIRRV [PDZ-Sub]
- average degradation rate of the fluorescent H2 optimal substrate (10 µM) by 100 nM HTRA2 with 50 µM PDZ-Sub; untreated HTRA2 229 U/min (increase up to 18%) [3]: 272 U/min

Molecule: GQYYFV [PDZ-Opt]
- average degradation rate of the fluorescent H2 optimal substrate (10 µM) by 100 nM HTRA2 with 50 µM PDZ-Opt; untreated HTRA2 229 U/min (increase up to 50%) [3]: 345 U/min
